Measurements published in patent publication US12570659B2, “Bicyclic heteroaryl compounds useful as IRAK4 inhibitors” (BRISTOL-MYERS SQUIBB COMPANY, priority 2019, dated 2026).

Columns and labels:
[1] = system: TLR2 agonist-stimulated IL-6 in human whole blood; assay: IRAK4 Whole Blood Assay; type: cell-based; conditions: lipoteichoic acid 10 μg/mL, 5 hours, IL-6 levels
Procedure: Human whole blood containing the anti-coagulant ACD-A was plated in 384-well plate (25 μL/well) and incubated with compounds for 60 minutes at 37° C. in a 5% CO2 incubator. The blood was stimulated with a TLR2 agonist, 10 μg/mL final concentration of lipoteichoic acid (Invivogen, San Diego, CA) in 25 μL RPMI (Gibco) for 5 hours in a 5% CO2 incubator. At the end of the incubation, plates were centrifuged at 2300 rpm for 5 minutes. Supernatants were harvested and analyzed for IL-6 levels by Flow Cytometry beads assay (BD Biosciences, San Jose, CA).

JAK3 kinase = JAK3 kinase (Homo sapiens (Human), UniProt P52333); assay: JAK3 Homogeneous Time Resolved Fluorescence (HTRF) Assay; type: binding; conditions: for IC50: competition binding with fluorescein-labeled ATP competitive probe; for Ratio of JAK3 IC50 to IRAK4 IC50: selectivity for IRAK4 over JAK3
Procedure, shortened: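 TR-FRET competition binding: 1 nM His- or GST-tagged JAK3 with 0.2 nM Tb-labeled anti-tag antibody, fluorescein ATP-competitive probe at its Kd, and compound for one hour. FRET read at 495/520 nm, normalized to no-compound signal. IC50 from 11 concentrations, 4-parameter logistic fit.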

IRAK4 = IRAK4 (Homo sapiens (Human), UniProt Q9NWZ3); assay: IRAK4 Inhibition Assay; type: biochemical; conditions: ATP 500 μM; IRAK4 0.6 nM; 60 min room temperature
Procedure, shortened: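 Reaction started by combining IRAK4 with substrates and compound, run 60 min at room temperature and stopped with 35 mM EDTA. Fluorescent substrate and phosphorylated product were separated electrophoretically on a Caliper LabChip; inhibition normalized to no-enzyme (100%) and vehicle-only (0%) controls.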

Sequence of JAK3 kinase (P52333 whole entry): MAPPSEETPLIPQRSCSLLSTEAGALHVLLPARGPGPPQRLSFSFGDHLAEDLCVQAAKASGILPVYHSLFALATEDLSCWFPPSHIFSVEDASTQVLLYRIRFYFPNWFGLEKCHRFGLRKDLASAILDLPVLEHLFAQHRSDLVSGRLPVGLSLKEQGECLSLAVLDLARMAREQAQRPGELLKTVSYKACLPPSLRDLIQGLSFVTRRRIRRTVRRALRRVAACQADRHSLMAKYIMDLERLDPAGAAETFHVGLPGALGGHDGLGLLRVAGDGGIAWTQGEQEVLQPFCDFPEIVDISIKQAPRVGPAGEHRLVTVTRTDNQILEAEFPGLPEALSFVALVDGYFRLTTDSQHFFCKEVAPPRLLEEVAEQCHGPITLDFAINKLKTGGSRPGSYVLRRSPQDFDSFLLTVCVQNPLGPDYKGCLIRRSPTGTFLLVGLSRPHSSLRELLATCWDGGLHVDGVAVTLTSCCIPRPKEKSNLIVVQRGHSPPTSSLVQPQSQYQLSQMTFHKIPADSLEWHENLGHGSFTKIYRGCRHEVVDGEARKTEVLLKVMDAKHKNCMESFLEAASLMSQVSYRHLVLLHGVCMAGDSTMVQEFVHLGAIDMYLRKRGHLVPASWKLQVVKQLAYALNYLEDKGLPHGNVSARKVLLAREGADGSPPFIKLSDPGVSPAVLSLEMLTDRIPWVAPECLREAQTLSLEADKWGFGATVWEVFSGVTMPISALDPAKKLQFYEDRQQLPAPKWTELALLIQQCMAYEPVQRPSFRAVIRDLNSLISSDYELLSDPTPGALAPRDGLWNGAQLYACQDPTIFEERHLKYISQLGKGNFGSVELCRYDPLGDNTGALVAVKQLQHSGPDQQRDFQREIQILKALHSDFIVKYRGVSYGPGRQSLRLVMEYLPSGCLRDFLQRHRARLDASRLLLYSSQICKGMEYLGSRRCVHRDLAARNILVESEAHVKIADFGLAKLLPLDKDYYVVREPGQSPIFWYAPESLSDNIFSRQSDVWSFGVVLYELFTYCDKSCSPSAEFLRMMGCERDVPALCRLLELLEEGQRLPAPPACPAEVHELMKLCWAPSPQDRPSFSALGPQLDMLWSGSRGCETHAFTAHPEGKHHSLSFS
Sequence of IRAK4 (Q9NWZ3 whole entry, species assumed): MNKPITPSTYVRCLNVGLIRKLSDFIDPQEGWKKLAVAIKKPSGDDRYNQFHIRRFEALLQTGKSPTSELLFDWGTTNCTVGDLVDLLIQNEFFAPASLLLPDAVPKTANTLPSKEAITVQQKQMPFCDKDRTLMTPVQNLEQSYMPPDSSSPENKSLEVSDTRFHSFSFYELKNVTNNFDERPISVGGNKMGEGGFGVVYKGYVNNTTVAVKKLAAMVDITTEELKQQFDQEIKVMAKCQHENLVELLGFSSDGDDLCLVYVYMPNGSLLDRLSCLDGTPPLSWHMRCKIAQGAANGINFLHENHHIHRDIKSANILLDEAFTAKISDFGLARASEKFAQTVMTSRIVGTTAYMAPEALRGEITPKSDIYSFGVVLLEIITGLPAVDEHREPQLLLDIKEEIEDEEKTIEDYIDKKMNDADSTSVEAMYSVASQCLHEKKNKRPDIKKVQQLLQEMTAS

Row | SMILES | IC50 [1] | IC50 (JAK3 kinase) | Ratio of JAK3 IC50 to IRAK4 IC50 (JAK3 kinase) | IC50 (IRAK4)
1 | CC(C)Nc1c(C(=O)N[C@H]2CC[C@H](c3nc[nH]n3)CC2)cnn2cc(-c3ccc(F)nc3)cc12 [Example 92, N-((1r,4r)-4-(1H-1,2,4-triazol-3-yl)cyclohexyl)-6-(6-fluoropyridin-3-yl)-4-(isopropylamino)pyrrolo[1,2-b]pyridazine-3-carboxamide] | 6970 nM | > 50000 nM | >5000 | 10 nM
2 | CNC(=O)[C@H]1CC[C@H](NC(=O)c2cnn3cc(-c4ccncc4F)cc3c2NC(C)C)CC1 [Example 87, 6-(3-fluoropyridin-4-yl)-4-(isopropylamino)-N-((1r,4r)-4-(methylcarbamoyl)cyclohexyl) pyrrolo[1,2-b]pyridazine-3-carboxamide] | 260 nM | > 50000 nM | >16129 | 3.1 nM
3 | CC(=O)N[C@H]1CC[C@H](NC(=O)c2cnn3cc(-c4ccc(C#N)cc4)cc3c2NC(C)C)CC1 [Example 81, N-((1r,4r)-4-acetamidocyclohexyl)-6-(4-cyanophenyl)-4-(isopropylamino)pyrrolo[1,2-b]pyridazine-3-carboxamide] | > 20000 nM | > 50000 nM | >4167 | 12 nM
4 | CC(=O)N[C@H]1CC[C@H](NC(=O)c2cnn3cc(-c4ccncc4)cc3c2NC(C)C)CC1 [Example 50, N-((1r,4r)-4-acetamidocyclohexyl)-4-(isopropylamino)-6-(pyridin-4-yl)pyrrolo[1,2-b]pyridazine-3-carboxamide] | 900 nM | ~39000 nM | ~18571 | 2.1 nM
5 | CC(C)Nc1c(C(=O)NC2CCN(S(C)(=O)=O)CC2)cnn2cc(-c3ccncc3F)nc12 [Example 111, 2-(3-fluoropyridin-4-yl)-8-(isopropylamino)-N-(1-(methylsulfonyl)piperidin-4-yl)imidazo[1,2-b]pyridazine-7-carboxamide] | 3730 nM | > 50000 nM | >3846 | 13 nM
6 | CC(=O)N[C@H]1CC[C@H](NC(=O)c2cnn3cc(-c4cccnc4)cc3c2NC(C)C)CC1 [Example 48, N-((1r,4r)-4-acetamidocyclohexyl)-4-(isopropylamino)-6-(pyridin-3-yl)pyrrolo[1,2-b]pyridazine-3-carboxamide] | 850 nM | > 50000 nM | >8475 | 5.9 nM
7 | CC(=O)N[C@H]1CC[C@H](NC(=O)c2cnn3cc(-c4ccc(CO)nc4)cc3c2NC(C)C)CC1 [Example 73, N-((1r,4r)-4-acetamidocyclohexyl)-6-(6-(hydroxymethyl)pyridin-3-yl)-4-(isopropylamino)pyrrolo[1,2-b]pyridazine-3-carboxamide] | 650 nM | > 50000 nM | >16129 | 3.1 nM
8 | CC(C)Nc1c(C(=O)NC[C@@H](F)C(C)(C)O)cnn2cc(-c3cccnc3)cc12 [Example 3, (R)—N-(2-fluoro-3-hydroxy-3-methylbutyl)-4-(isopropylamino)-6-(pyridin-3-yl)pyrrolo[1,2-b]pyridazine-3-carboxamide] | 9500 nM | 31000 nM | 1938 | 16 nM
9 | CC(C)Nc1c(C(=O)NC[C@@H](F)C(C)(C)O)cnn2cc(-c3ccncc3)cc12 [Example 5, (R)—N-(2-fluoro-3-hydroxy-3-methylbutyl)-4-(isopropylamino)-6-(pyridin-4-yl)pyrrolo[1,2-b]pyridazine-3-carboxamide] | 4600 nM | 29000 nM | 3152 | 9.2 nM
10 | COC(=O)N[C@H]1CC[C@H](NC(=O)c2cnn3cc(-c4cccnc4)cc3c2NC(C)C)CC1 [Example 49, methyl ((1r,4r)-4-(4-(isopropylamino)-6-(pyridin-3-yl)pyrrolo[1,2-b]pyridazine-3-carboxamido)cyclohexyl)carbamate] | > 10000 nM | > 50000 nM | >4425 | 11.3 nM
11 | CC(C)Nc1c(C(=O)N[C@H]2CC[C@H](c3nc[nH]n3)CC2)cnn2cc(-c3ccncc3)cc12 [Example 90, N-((1r,4r)-4-(1H-1,2,4-triazol-3-yl)cyclohexyl)-4-(isopropylamino)-6-(pyridin-4-yl)pyrrolo[1,2-b]pyridazine-3-carboxamide] | 630 nM | 10000 nM | 2703 | 3.7 nM
12 | CC(C)Nc1c(C(=O)N[C@H]2CC[C@H](N)CC2)cnn2cc(-c3ccncc3)cc12 [Example 54, N-((1r,4r)-4-aminocyclohexyl)-4-(isopropylamino)-6-(pyridin-4-yl)pyrrolo[1,2-b]pyridazine-3-carboxamide] | 1220 nM | > 50000 nM | >5495 | 9.1 nM
13 | CC(=O)N[C@H]1CC[C@H](NC(=O)c2cnn3cc(-c4cnccc4C)cc3c2NC(C)C)CC1 [Example 70, N-((1r,4r)-4-acetamidocyclohexyl)-4-(isopropylamino)-6-(4-methylpyridin-3-yl)pyrrolo[1,2-b] pyridazine-3-carboxamide] | > 10000 nM | > 50000 nM | >3571 | 14 nM
14 | CC(C)Nc1c(C(=O)NC[C@@H](F)C(C)(C)O)cnn2cc(-c3ccc(N)nc3)cc12 [Example 45, (R)-6-(6-aminopyridin-3-yl)-N-(2-fluoro-3-hydroxy-3-methylbutyl)-4-(isopropylamino) pyrrolo[1,2-b]pyridazine-3-carboxamide] | 4680 nM | ~29000 nM | ~3671 | 7.9 nM
15 | CC(C)Nc1c(C(=O)NC[C@@H](F)C(C)(C)O)cnn2cc(-c3ccc(C#N)cc3)cc12 [Example 1, (R)-6-(4-cyanophenyl)-N-(2-fluoro-3-hydroxy-3-methylbutyl)-4-(isopropylamino)pyrrolo[1,2-b]pyridazine-3-carboxamide] | > 10000 nM | 20000 nM | 1667 | 12 nM
16 | CC(C)Nc1c(C(=O)NCCN2CCOCC2)cnn2cc(-c3ccncc3F)cc12 [Example 71, 6-(3-fluoropyridin-4-yl)-4-(isopropylamino)-N-(2-morpholinoethyl)pyrrolo[1,2-b]pyridazine-3-carboxamide] | > 10000 nM | 7000 nM | 972 | 7.2 nM
17 | CC(C)Nc1c(C(=O)N[C@H]2CC[C@H](NC(=O)CO)CC2)cnn2cc(-c3ccncc3F)cc12 [Example 68, 6-(3-fluoropyridin-4-yl)-N-((1r,4r)-4-(2-hydroxyacetamido)cyclohexyl)-4-(isopropylamino)pyrrolo[1,2-b]pyridazine-3-carboxamide] | 4100 nM | > 50000 nM | >7692 | 6.5 nM
18 | CC(=O)N[C@H]1CC[C@H](NC(=O)c2cnn3cc(-c4ccncc4C)cc3c2NC(C)C)CC1 [Example 56, N-((1r,4r)-4-acetamidocyclohexyl)-4-(isopropylamino)-6-(3-methylpyridin-4-yl)pyrrolo[1,2-b]pyridazine-3-carboxamide] | 810 nM | > 50000 nM | >31250 | 1.6 nM
19 | CC(=O)N[C@H]1CC[C@H](NC(=O)c2cnn3cc(-c4cccnc4F)cc3c2NC(C)C)CC1 [Example 69, N-((1r,4r)-4-acetamidocyclohexyl)-6-(2-fluoropyridin-3-yl)-4-(isopropylamino)pyrrolo[1,2-b]pyridazine-3-carboxamide] | 7010 nM | ~42000 nM | ~4565 | 9.2 nM
